Tests used:
Human plasma kallikrein = target: T1, Human plasma kallikrein (Homo sapiens, UniProt P03952); experiment: Plasma Kallikrein Assay; format: biochemical; settings: purified Human plasma kallikrein 0.5 nM, substrate Acetyl-K-P-R-AFC, pH 7.4
T1 construct: yields a heavy chain (371 amino acids) and a light chain (248 amino acids); purchased Enzyme Research Laboratories

human factor XIa = human factor XIa (Homo sapiens, UniProt P03951); experiment: Factor XIa Assay; format: biochemical; settings: human factor XIa 0.04 nM, substrate GPR-AFC, 30 min pre-incubation at 25° C., pH 7.4; read-out: FXIa IC50
Description: The effectiveness of a compound of the present invention as an inhibitor of Coagulation factor XIa can be determined using a relevant purified serine protease, and an appropriate synthetic substrate. The rate of hydrolysis of the chromogenic or fluorogenic substrate by the relevant serine protease was measured both in the absence and presence of compounds of the present invention. Assays were conducted at rt or at 37° C. […] A decrease in the rate of fluorescence change in the presence of inhibitor is indicative of enzyme inhibition. Such methods are known to one skilled in the art. The results of this assay are expressed as the half-maximal inhibitory concentrations (IC50), or the inhibitory constant, Ki.
Compounds were pre-incubated for 30 min at 25° C. with human (0.04 nM) factor XIa in 50 mM HEPES buffer with 150 mM sodium chloride, 5 mM calcium chloride, 0.1% PEG 8000, pH 7.4. factor XIa enzymatic activity was determined by addition of the substrate glycine-proline-arginine-7-amido-4-trifluoromethylcoumarin (GPR-AFC) and measurement of the fluorescence at 400/505 nm after a 60 min incubation at 25° C. The % inhibition for each data point was calculated from the data and analyzed using the log (inhibitor) vs. response four parameters equation to determine the half-maximal inhibitory concentrations (IC50). The IC50 were converted to equilibrium inhibitory constants (Ki) using the Cheng-Prusoff equation.

Sequence of human factor XIa (P03951 388-625 limits assumed): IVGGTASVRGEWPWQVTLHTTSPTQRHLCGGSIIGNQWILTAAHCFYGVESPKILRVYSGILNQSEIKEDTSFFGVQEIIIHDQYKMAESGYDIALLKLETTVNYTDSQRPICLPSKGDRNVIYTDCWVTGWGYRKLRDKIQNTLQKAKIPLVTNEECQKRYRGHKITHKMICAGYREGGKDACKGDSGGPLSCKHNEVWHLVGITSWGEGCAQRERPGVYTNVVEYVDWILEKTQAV
Sequence of human factor XIa (P03951 19-387 partner limits assumed): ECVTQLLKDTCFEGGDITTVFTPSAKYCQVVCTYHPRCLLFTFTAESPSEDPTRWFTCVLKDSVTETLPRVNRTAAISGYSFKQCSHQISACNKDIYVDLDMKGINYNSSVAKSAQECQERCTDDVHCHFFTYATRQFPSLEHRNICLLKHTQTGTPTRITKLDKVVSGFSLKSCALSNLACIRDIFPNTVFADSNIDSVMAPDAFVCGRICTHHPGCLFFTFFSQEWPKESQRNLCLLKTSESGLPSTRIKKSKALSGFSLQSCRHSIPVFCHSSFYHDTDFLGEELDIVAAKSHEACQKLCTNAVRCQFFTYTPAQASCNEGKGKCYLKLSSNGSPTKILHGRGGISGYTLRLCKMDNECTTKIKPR
T1 sequence (P03952 391-638 limits assumed): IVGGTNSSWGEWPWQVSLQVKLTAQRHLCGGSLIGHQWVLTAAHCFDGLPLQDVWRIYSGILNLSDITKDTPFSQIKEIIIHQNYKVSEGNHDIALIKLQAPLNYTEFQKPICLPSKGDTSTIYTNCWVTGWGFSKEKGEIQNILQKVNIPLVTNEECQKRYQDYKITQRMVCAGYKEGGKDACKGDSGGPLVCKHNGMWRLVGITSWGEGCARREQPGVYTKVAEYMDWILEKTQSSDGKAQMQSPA
T1 sequence (P03952 20-390 partner limits assumed): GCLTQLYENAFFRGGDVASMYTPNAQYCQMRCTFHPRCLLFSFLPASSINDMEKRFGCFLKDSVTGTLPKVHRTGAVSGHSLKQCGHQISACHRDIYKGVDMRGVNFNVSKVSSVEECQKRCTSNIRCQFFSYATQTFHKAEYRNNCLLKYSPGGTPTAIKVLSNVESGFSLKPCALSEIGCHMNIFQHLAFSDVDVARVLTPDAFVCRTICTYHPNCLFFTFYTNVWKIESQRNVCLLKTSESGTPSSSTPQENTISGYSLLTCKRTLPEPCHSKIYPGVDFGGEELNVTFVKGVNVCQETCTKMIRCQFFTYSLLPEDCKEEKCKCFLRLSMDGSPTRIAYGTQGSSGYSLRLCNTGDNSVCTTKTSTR

SMILES | IC50 (Human plasma kallikrein) | IC50 (human factor XIa)
O=C(Nc1cnn(Cc2cnc(N3CC4CC4C3CO)nc2)c1)c1cncc(-c2c(C(F)F)ccc(Cl)c2F)n1 (single isomer, unassigned) [Example 79, 6-(3-Chloro-6-(difluoromethyl)-2-fluorophenyl)-N-(1-((2-((1R,2S,5S or 1S,2R,5R)-2-(hydroxymethyl)-3-azabicyclo[3.1.0]hexan-3-yl)pyrimidin-5-yl)methyl)-1H-pyrazol-4-yl)pyrazine-2-carboxamide] | 5.9 nM | 2860 nM
CC(c1cnc(N2C[C@H]3C[C@H]3C2C(=O)N(C)C)nc1)n1cc(NC(=O)c2cncc(-c3c(C(F)F)ccc(Cl)c3F)n2)cn1 (single isomer, unassigned) [Example 202, (1R,2S,5S or 1S,2R,5R)-3-(5-((R or S)-1-(4-(6-(3-Chloro-6-(difluoromethyl)-2-fluorophenyl)pyrazine-2-carboxamido)-1H-pyrazol-1-yl)ethyl)pyrimidin-2-yl)-N,N-dimethyl-3-azabicyclo[3.1.0]hexane-2-carboxamide] | 1 nM | 2260 nM
CC(c1cnc(N2CC[C@H](O)C2)nc1)n1cc(NC(=O)c2cncc(-c3c(C(F)F)ccc(Cl)c3F)n2)cn1 (mixture of isomers) [Example 96, 6-(3-Chloro-6-(difluoromethyl)-2-fluorophenyl)-N-(1-((R and S)-1-(2-((S)-3-hydroxypyrrolidin-1-yl)pyrimidin-5-yl)ethyl)-1H-pyrazol-4-yl)pyrazine-2-carboxamide] | 25.9 nM | 3710 nM
CC(c1cnc(N2C[C@H]3C[C@H]3C2C(=O)N(C)C)nc1)n1cc(NC(=O)c2cncc(-c3c(C(F)F)ccc(Cl)c3F)n2)cn1 (single isomer, unassigned) [Example 200, (1R,2S,5S or 1S,2R,5R)-3-(5-((R or S)-1-(4-(6-(3-Chloro-6-(difluoromethyl)-2-fluorophenyl)pyrazine-2-carboxamido)-1H-pyrazol-1-yl)ethyl)pyrimidin-2-yl)-N,N-dimethyl-3-azabicyclo[3.1.0]hexane-2-carboxamide] | 2.4 nM | 1120 nM
CC(c1cnc(N2CC3CC3C2)nc1)n1cc(NC(=O)c2nc(-c3c(C(F)F)ccc(Cl)c3F)cnc2N(C)C)cn1 (single isomer, unassigned) [Example 34, N-(1-((1R or 1S)-1-(2-(3-azabicyclo[3.1.0]hexan-3-yl)pyrimidin-5-yl)ethyl)-1H-pyrazol-4-yl)-6-(3-chloro-6-(difluoromethyl)-2-fluorophenyl)-3-(dimethylamino)pyrazine-2-carboxamide] | 28.1 nM | 3330 nM
O=C(Nc1cnn(S(=O)(=O)c2ccc(N3CCC3)nc2)c1)c1cncc(-c2c(C(F)F)ccc(Cl)c2F)n1 [Example 26, N-(1-((6-(Azetidin-1-yl)pyridin-3-yl)sulfonyl)-1H-pyrazol-4-yl)-6-(3-chloro-6-(difluoromethyl)-2-fluorophenyl)pyrazine-2-carboxamide] | 45.9 nM | 5350 nM
O=C(Nc1cnn(C2(c3cnc(N4CCC4)nc3)CC2)c1)c1cncc(-c2c(C(F)F)ccc(Cl)c2F)n1 [Example 21, N-(1-(1-(2-(Azetidin-1-yl)pyrimidin-5-yl)cyclopropyl)-1H-pyrazol-4-yl)-6-(3-chloro-6-(difluoromethyl)-2-fluorophenyl)pyrazine-2-carboxamide] | 17 nM | 973 nM
CC(c1cnc(N2Cc3cnn(C)c3C2)nc1)n1cc(NC(=O)c2cncc(-c3c(C(F)F)ccc(Cl)c3F)n2)cn1 (centres unmarked) [Example 94, 6-(3-Chloro-6-(difluoromethyl)-2-fluorophenyl)-N-(1-(1-(2-(1-methyl-4,6-dihydropyrrolo[3,4-c]pyrazol-5(1H)-yl)pyrimidin-5-yl)ethyl)-1H-pyrazol-4-yl)pyrazine-2-carboxamide] | 20 nM | 8230 nM

Further compounds by falling IC50 (Human plasma kallikrein), results first:

IC50 (Human plasma kallikrein) | IC50 (human factor XIa) | SMILES
25.7 nM | 3030 nM | C[C@H](c1cnc(N2CCC2)nc1)n1cc(NC(=O)c2cncc(-c3c(C(F)(F)F)ccc(Cl)c3F)n2)cn1 (single isomer, unassigned) [Example 54]
14.5 nM | 3580 nM | O=C(Nc1cnn(C2CCc3cc(N4CCC4)ncc32)c1)c1cncc(-c2c(C(F)F)ccc(Cl)c2F)n1 (single isomer, unassigned) [Example 119, (R or S)-N-(1-(3-(Azetidin-1-yl)-6,7-dihydro-5H-cyclopenta[c]pyridin-7-yl)-1H-pyrazol-4-yl)-6-(3-chloro-6-(difluoromethyl)-2-fluorophenyl)pyrazine-2-carboxamide]
7.4 nM | 3940 nM | NCC1CCCN1c1ncc(Cn2cc(NC(=O)c3cncc(-c4c(C(F)F)ccc(Cl)c4F)n3)cn2)cn1 (centres unmarked) [Example 81, N-(1-((2-(2-(Aminomethyl)pyrrolidin-1-yl)pyrimidin-5-yl)methyl)-1H-pyrazol-4-yl)-6-(3-chloro-6-(difluoromethyl)-2-fluorophenyl)pyrazine-2-carboxamide]
3.7 nM | 1490 nM | O=C(Nc1cnn(Cc2cnc(N3C[C@H]4C[C@H]4[C@H]3CO)nc2)c1)c1cncc(-c2c(C(F)F)ccc(Cl)c2F)n1 [Example 73, 6-(3-Chloro-6-(difluoromethyl)-2-fluorophenyl)-N-(1-((2-((1R,2S,5S)-2-(hydroxymethyl)-3-azabicyclo[3.1.0]hexan-3-yl)pyrimidin-5-yl)methyl)-1H-pyrazol-4-yl)pyrazine-2-carboxamide]
2 nM | 9630 nM | CC(c1cnc(N2CC[C@H]2CN2CC[C@H](O)[C@@H]2C)nc1)n1cc(NC(=O)c2cncc(-c3c(C(F)F)ccc(Cl)c3F)n2)cn1 (stereo partly drawn) [Example 161, 6-(3-Chloro-6-(difluoromethyl)-2-fluorophenyl)-N-(1-(1-(2-((S)-2-(((2S,3S)-3-hydroxy-2-methylpyrrolidin-1-yl)methyl)azetidin-1-yl)pyrimidin-5-yl)ethyl)-1H-pyrazol-4-yl)pyrazine-2-carboxamide]
1 nM | 5190 nM | CC(c1cnc(N2CC[C@H]2CN2CC[C@H](O)C2)nc1)n1cc(NC(=O)c2cncc(-c3c(C(F)F)ccc(Cl)c3F)n2)cn1 (stereo partly drawn) [Example 162, 6-(3-Chloro-6-(difluoromethyl)-2-fluorophenyl)-N-(1-(1-(2-((S)-2-(((S)-3-hydroxypyrrolidin-1-yl)methyl)azetidin-1-yl)pyrimidin-5-yl)ethyl)-1H-pyrazol-4-yl)pyrazine-2-carboxamide]
0.6 nM | 2930 nM | O=C(Nc1cnn(Cc2cnc(N3CCCC3CN3CC[C@H](F)C3)nc2)c1)c1cncc(-c2c(C(F)F)ccc(Cl)c2F)n1 (stereo partly drawn) [Example 148, 6-(3-Chloro-6-(difluoromethyl)-2-fluorophenyl)-N-(1-((2-(2-(((S)-3-fluoropyrrolidin-1-yl)methyl)pyrrolidin-1-yl)pyrimidin-5-yl)methyl)-1H-pyrazol-4-yl)pyrazine-2-carboxamide]
0.5 nM | 366 nM | CC1(O)CN(C[C@@H]2[C@@H]3C[C@@H]3CN2c2ncc(Cn3cc(NC(=O)c4cncc(-c5c(C(F)F)ccc(Cl)c5F)n4)cn3)cn2)C1 [Example 145, 6-(3-Chloro-6-(difluoromethyl)-2-fluorophenyl)-N-(1-((2-((1R,2S,5S)-2-((3-hydroxy-3-methylazetidin-1-yl)methyl)-3-azabicyclo[3.1.0]hexan-3-yl)pyrimidin-5-yl)methyl)-1H-pyrazol-4-yl)pyrazine-2-carboxamide]
